The values that follow come from US10370436B2, “Anti-pseudomonas Psl binding molecules and uses thereof” (priority 2011, dated 2019).

The subject of this assay is P. aeruginosa PAO10 LPS. The assay is described as follows: Endotoxemia (LPS challenge) model. It is filed as in vivo, C57Bl/6 mice. The settings on record: 0.2 mg/kg i.p. 2 h prior to challenge. The method, then:
In particular, C57Bl/6 mice (10 per group) were dosed i.p. with mAb or PMB-mAb conjugate 6 h prior to challenge with P. aeruginosa PAO10 LPS (Sigma) and D-galactosamine. PMB control was dosed i.p. 2 h prior to challenge at 0.2 mg/kg and typically provides 80-100% protection. Control mice dosed with unconjugated CAM-003 all died within 18 h.
TM conjugates were dosed at 45, 15 and 5 mg/kg.

For Polymyxin B [PMB, reference compound], the protection is listed as 80-100%.
